Data taken from US20080095713A1, “Method of Tumour Imaging” (priority 2004, published 2008).

Legend:
[1] = T1 relaxation of ^13C-pyruvate in human full blood; type: physicochemical; settings: human full blood at 37° C.
Excerpt: The amount of alanine, bicarbonate and lactate is dependent on the metabolic status of the tissue under investigation.

[2] = system: R3230AC rat mammary adenocarcinoma; test: In vivo ^13C-MR tumour imaging using hyperpolarised ^13C-pyruvate
Procedure: R3230AC is a rat mammary adenocarcinoma that can be maintained in female Fischer 344 rats. To establish the animal tumour model, a frozen vial of R32030 cells containing RPMI 1640, 10% FBS and 10% DMSO was rapidly thawed in 37° C. Thereafter, the cell solution was transferred to FBS and increasing volumes of RPMI 1640 were added. Finally, the cell suspension was transferred to a 25 cm^2 growth flask and put into an incubator at 37° C., 5% CO2. Growth media were changed every other day. At the day of rat infection, removal of cells was carried out either by mechanical force or by means of trypsin. Cells were washed using phosphate buffer lacking calcium and magnesium. Trypsin (0.05% trypsin in 0.02% EDTA) was added for 2-5 min. Then, 5 ml FBS was added and the cells were transferred into a beaker containing RPMI 1640 with FCS and antibiotics (100 IU/ml penicillin, 100 IU/ml streptomycin and 2.5 μg/ml amphotericin B). The cell solution was centrifugated and the cell pellet was resuspended in 20 ml RPMI with FBS and antibiotics, centrifugation and resuspension was repeated. The cells were then aliquoted to vials containing 4×10^6 cells/ml RPMI 1640. To obtain donor tumours, female Fischer 344 rats (Charles River, 180-200 g) were anaesthetised and 0.3 ml of the cell suspension was subcutaneously injected in the inguinal region on both sides. 15 and 22 days later, pieces of tumour were prepared as described in F. A. Burgener et al., Invest Radiol 22/6 (1987), 472-478; S. Saini et al., J. Magn. Reson. 129/1 (1997), 35-43). Two incisions were made on the ventral abdomen of recipient female Fischer rats. A tumour piece was inserted into each pocket and the incisions were closed. Rats were brought to imaging 12-14 days after tumour engrafting.
Weighed rats were anaesthetised using isoflurane (2-3%) and kept on a heated table to ensure a body temperature of about 37° C. A catheter was introduced into the tail vein and into the arteria carotis communis sinistra. The rats were transported to the MR machine and placed on a home-built pad that was heated to approx. 37° C. by means of circulating FC-104 Fluorinert. This liquid will not give rise to background signals in ^1H- and ^13C-MR imaging. Anaesthesia was continued by means of 1-2% isoflurane delivered via a long tube to an open-breathing system at a rate of 0.4 L/min. […]
Based on the proton frequency found by the MR system the MR frequency for ^13C1-alanine was calculated according to the following equation: […]
The frequency calculated positioned the MR signal arising from ^13C1-alanine on resonance with ^13C1-lactate on the left and ^13C1-pyruvate resonating on the right of ^13C1-alanine. […]

[3] = Properties of the injected ^13C1-pyruvate composition at time of injection; type: physicochemical
Excerpt: The frequency calculated positioned the MR signal arising from ^13C1-alanine on resonance with ^13C1-lactate on the left and ^13C1-pyruvate resonating on the right of ^13C1-alanine. An unlocalised MR spectroscopy sequence was run to ensure that the 13C-MR coil and the system MR frequency had been set up correctly. The ^13C-image location was positioned to cover the tumour (slice thickness 10 mm, in plane pixel size 5×5 mm^2). In the reconstruction phase, the image data was zero-filled to result in 2.5×2.5×10 mm^3 resolution. ^13C1-pyruvate in TRIS buffer (90 mM) was injected in a dose of 10 ml/kg during a period of 12 s with a minimum volume of 2 ml into the tail vein and 30 s after the start of the injection (i.e. 18 s after finishing the injection), the chemical shift ^13C-MR sequence was started.
In total 30 different tumours were imaged in 18 rats. 1 rat failed and 3 tumours failed the biological criteria described in the preceding paragraph 5.5. […] The average polarisation of ^13C1-pyruvate at the time of injection was 21.2±2.9% (mean ±SD) and the pH was 8.08±0.14 (mean±SD).

[4] = DNP polarisation, solid-state ^13C-NMR (enhanced vs thermal equilibrium signal); type: physicochemical; settings: 20 mM Tris(8-carboxy-2,2,6,6-tetra(hydroxyethoxy)methyl-benzo[1,2-d:4,5-d′]bis(1,3)dithiole-4-yl)methyl sodium salt, 1.2 K, 3.35 T, 93.950 GHz
Procedure: A 20 mM solution was prepared by dissolving Tris(8-carboxy-2,2,6,6-tetra(hydroxyethoxy)methyl-benzo [1,2-d:4,5-d′]-bis-(1,3)-dithiole-4-yl)methyl sodium salt in ^13C1-pyruvic acid (83.1 mg). The sample was mixed to homogeneity, placed in a sample cup and inserted in the DNP polariser. The sample was polarised under DNP conditions at 1.2 K in a 3.35 T magnetic field under irradiation with microwave (93.950 GHz). The ^13C-NMR signal from the sample was acquired using a Varian Inova-200 NMR spectrometer. The DNP enhancement was calculated from a measurement of the thermal equilibrium ^13C-NMR signal and the enhanced NMR signal. 16% ^13C polarisation was obtained.

[5] = DNP polarisation, dissolution and liquid-state ^13C-NMR assessment of polarisation; type: physicochemical; settings: 1.2 K, 3.35 T
Procedure: A 20 mM solution was prepared by dissolving 5.0 mg of the radical of Example 1 in ^13C1-pyruvic acid (164 μl). The sample was mixed to homogeneity and an aliquot of the solution (41 mg) was placed in a sample cup and inserted in the DNP polariser.
The sample was polarised under DNP conditions at 1.2 K in a 3.35 T magnetic field under irradiation with microwave (93.950 GHz). After 2 hours the polarisation was stopped and the sample was dissolved using a dissolution device according to WO-A-02/37132 in an aqueous solution of sodium hydroxide and tris(hydroxymethyl)-aminomethane (TRIS) to provide a neutral solution of hyperpolarized sodium^13C1-pyruvate. The dissolved sample was rapidly analysed with ^13C-NMR to assess the polarisation and a 19.0 % ^13C polarisation was obtained.
A 15 mM solution was prepared by dissolving the radical of Example 1 (209.1 mg) in a mixture of ^13C1-pyruvic acid (553 mg) and unlabelled pyruvic acid (10.505 g). […]
The sample was polarised under DNP conditions at 1.2 K in a 3.35 T magnetic field under irradiation with microwave (93.950 GHz). […] The filtered solution was rapidly analysed with ^13C-NMR to assess the polarisation, 16.5% ^13C polarisation was obtained. The residual radical concentration was subsequently analysed with a UV spectrophotometer at 469 nm and was determined to be below the detection limit of 0.1 μM.

[6] = rat, i.v. tail vein 10 ml/kg, imaging 30 s after start of injection

SMILES: CC(=O)[13C](=O)O [^13C-pyruvate]
- T1 relaxation [1]: about 42 s

SMILES: CC(=O)[13C](=O)O [^13C1-pyruvate]
- overall rate of success ([2]; discrimination of tumour and healthy tissue, 26 out of 26 tumours): 100%
- metabolic contrast in the tumour area, lactate signal [2, 6]: 24 out of 26
- metabolic contrast in the tumour area, lactate signal, alanine corrected [2, 6]: 26 out of 26
- metabolic contrast in the tumour area, lactate signal, pyruvate corrected [2, 6]: 26 out of 26
- average polarisation at the time of injection ([3]; mean ±SD, ^13C1-pyruvate in TRIS buffer (90 mM)): 21.2±2.9%
- pH ([3]; mean±SD, injected composition): 8.08±0.14

SMILES: CC(=O)[13C](=O)O [^13C1-pyruvic acid]
- ^13C polarisation [4]: 16%

SMILES: CC(=O)[13C](=O)[O-].[Na+] [sodium ^13C1-pyruvate]
- ^13C polarisation ([5]; 15 mM radical of Example 1 in ^13C1-pyruvic acid/unlabelled pyruvic acid, 4 hours, dissolved NaOH/TRIS, 0.5 M pyruvate, radical removed on C18 column): 16.5%
- ^13C polarisation ([5]; 20 mM radical of Example 1 in ^13C1-pyruvic acid, 93.950 GHz, 2 hours, dissolved in NaOH/TRIS, liquid ^13C-NMR): 19.0%
